Measured values as given in ChEMBL document CHEMBL1125766, “Synthesis and antiviral activity of certain guanosine analogues in the thiazolo[4,5-d]pyrimidine ring system” (1991).
Where “and” joins values, the source holds several entries; their conditions need not be identical. Identical values can stand only once.

Columns and labels:
Type in all cases: functional
[1] = system: Mus musculus; assay: Compound was tested for its activity against forest virus infection in mice, activity was determined by measuring the number of survived mice after 200 mg/kg administration.
[2] = system: Mus musculus; assay: Compound was tested for its activity against forest virus infection in mice, activity was determined by measuring the number of survived mice after 100 mg/kg administration.
[3] = system: Mus musculus; assay: Compound was tested for mean survival time through 21 days after administration of 200 mg/kg, 24 and 18 hr prior to virus inoculation ( forest virus) in mice
[4] = system: Mus musculus; assay: Compound was tested for mean survival time through 21 days after administration of 100 mg/kg, 24 and 18 hr prior to virus inoculation ( forest virus) in mice
[5] = system: Mus musculus; assay: Compound was tested for its activity against forest virus infection in mice, activity was determined by measuring the number of survived mice after 100 mg/kg administration
[6] = system: Mus musculus; assay: Compound was tested for its activity against forest virus infection in mice, activity was determined by measuring the number of survived mice after 25 mg/kg administration
[7] = system: Mus musculus; assay: Compound was tested for its activity against forest virus infection in mice, activity was determined by measuring the number of survived mice after 50 mg/kg administration
[8] = system: Mus musculus; assay: Compound was tested for mean survival time through 21 days after administration of 25 mg/kg, 24 and 18 hr prior to virus inoculation ( forest virus) in mice
[9] = system: Mus musculus; assay: Compound was tested for its activity against forest virus infection in mice, activity was determined by measuring the number of survived mice after 150 mg/kg subcutaneous administration.
[10] = system: Mus musculus; assay: Compound was tested for its activity against forest virus infection in mice, activity was determined by measuring the number of survived mice after 150 mg/kg oral administration.
[11] = system: Mus musculus; assay: Compound was tested for its activity against intraperitoneal administration.
[12] = system: Mus musculus; assay: Compound was tested for its activity against forest virus infection in mice, activity was determined by measuring the number of survived mice after 150 mg/kg intravenous administration.
[13] = system: Mus musculus; assay: Compound was tested for mean survival time through 21 days after intraperitoneal administration of 150 mg/kg, 24 hr prior to virus inoculation ( forest virus) in mice
[14] = system: Mus musculus; assay: Compound was tested for mean survival time through 21 days after subcutaneous administration of 150 mg/kg, 24 hr prior to virus inoculation ( forest virus) in mice
[15] = system: Mus musculus; assay: Compound was tested for mean survival time through 21 days after intravenous administration of 150 mg/kg, 24 hr prior to virus inoculation ( forest virus) in mice
[16] = system: Mus musculus; assay: Compound was tested for mean survival time through 21 days after oral administration of 150 mg/kg, 24 hr prior to virus inoculation ( forest virus) in mice

SMILES | Survivors [1] [%] | Survivors [2] [%] | Mean survival time [3] [days] | Mean survival time [4] [days] | Survivors [5] [%] | Survivors [6] [%] | Survivors [7] [%] | Mean survival time [8] | Survivors [9] [%] | Survivors [10] [%] | Survivors [11] [%] | Survivors [12] [%] | Mean survival time [13] [days] | Mean survival time [14] [days] | Mean survival time [15] [days] | Mean survival time [16] [days] | Mean survival time ([4]; 100 mg/kg)
Nc1nc(O)c2sc(=O)n(C3O[C@H](COS(N)(=O)=O)[C@@H](O)[C@H]3O)c2n1 (stereo not given in full) | 8 | 17 | 8.2 | 8 | – | – | – | – | – | – | – | – | – | – | – | – | –
Nc1nc(O)c2sc(=O)n(C3O[C@H](COP(=O)(O)O)[C@@H](O)[C@H]3O)c2n1 (stereo not given in full) | – | – | – | 6.5 | 67 | 25 | 50 | 8.1 days and 7.1 days | – | – | – | – | – | – | – | – | –
CC(=O)OC[C@H]1O[C@@H](n2c(=O)sc3c(O)nc(N)nc32)[C@H](OC(C)=O)[C@@H]1OC(C)=O | – | – | – | – | – | – | – | – | 82 | 17 | 92 | 42 | 8 | 7 | 7.9 | 6.6 | –
Nc1nc(O)c2sc(=O)n([C@H]3C[C@H](O)[C@@H](CO)O3)c2n1 | 83 | 50 | 7 | 6.8 | – | – | – | – | – | – | – | – | – | – | – | – | –
Nc1nc(=O)c2sc(=O)n([C@@H]3O[C@H](CO)[C@@H](O)[C@H]3O)c2[nH]1 [ISATORIBINE] | 100 | 92 | >21 | – | 50 | 25 | 25 | 8.8 days and 7.2 days | 100 | 25 | 91 | 73 | 7 | >21 | 8 | 7.1 | 6.5 days and 10 days
Nc1nc(O)c2sc(=O)n(C(CO)OC(CO)CO)c2n1 (stereo not given) | 0 | 8 | 7.8 | 7 | – | – | – | – | – | – | – | – | – | – | – | – | –
Nc1nc(O)c2sc(=O)n([C@@H]3O[C@@H]4COP(=O)(O)O[C@H]4[C@H]3O)c2n1 | – | – | – | 7 | 50 | 42 | 17 | 7.1 days and 7.3 days | – | – | – | – | – | – | – | – | –
C[C@H]1OC(n2c(=O)sc3c(O)nc(N)nc32)[C@H](O)[C@@H]1O (stereo not given in full) | 0 | 8 | 8.4 | 8 | – | – | – | – | – | – | – | – | – | – | – | – | –
